What was measured:
Renal Hypertensive Rats = assay: Antihypertensive activity in renal hypertensive rats (tail-cuff systolic blood pressure and heart rate); assay type: in vivo, rats (Male Sprague-Dawley); settings: single dose po, nicardipine 3 mg/kg, ACE inhibitor 10 mg/kg, combination 3 + 10 mg/kg, n = 6
Description: Twenty-four renal hypertensive rates (Male Sprague-Dawley, 140-170g) showing systolic blood pressure of 160 mmHg or greater were chosen for the study. Using the random block design, they were distributed into four groups: 3 groups for compound treatments and one for vehicle control. They were randomly assigned to the treatments. The test compounds were dissolved in deionized water at concentrations such that 1.0 ml of solution was administered per 100 grams of body weight.
At approximately 17 hours prior to dosing, food was removed from the rat cages. On the morning of testing, the rats were dosed with the assigned compound or vehicle by gavage. Immediately after dosing, the rats were put in restrainers and placed in a heated chamber, 30 degrees centrigrade, for four hours. After the four hour reading, the rats were returned to their home cage for 3 hours and then were put in the restrainer again for the hour 8 reading.
Using a tail blood pressure cuff, blood pressure curves and tail pulses were simultaneously monitored on a 4-channel MFE recorder digitized by a computer system. At least four consecutive traces (at 30 second intervals) were recorded for each rat at 1, 2, 4 and 8 hour post-dose.
The computer system has been programmed to find systolic blood pressure (mmHg) and heart rate (beats/min) for each recording and them calculate the mean SBP and the mean HR of each rat at each observation time. Manual editing and confirmation of the analyses were carried out by the investigator on any systolic blood pressure traces that were more than two standard deviations outside the mean blood pressure readings for that animal at a given time period.
The SBP's of the animals in each dose group were compared to the SBP's of the animals in the control group at each observation time using oneway analysis of variance. Significance was determined using the Dunnet test.

CD rats = settings: rat, in vivo; cited from earlier work

SMILES	HR % Chg (Chg from Control) (Renal Hypertensive Rats; 1 Hr post-dose) [%]	HR b/min. Chg (Chg from Control) (Renal Hypertensive Rats; 1 Hr post-dose) [b/min.]	SBP % Chg (Chg from Control) (Renal Hypertensive Rats; 1 Hr post-dose) [%]	SBP mmHg Chg (Chg from Control) (Renal Hypertensive Rats; 1 Hr post-dose) [mmHg]	HR % Chg (Chg from Control) (Renal Hypertensive Rats; 2 Hr post-dose) [%]	HR b/min. Chg (Chg from Control) (Renal Hypertensive Rats; 2 Hr post-dose) [b/min.]	SBP % Chg (Chg from Control) (Renal Hypertensive Rats; 2 Hr post-dose) [%]	SBP mmHg Chg (Chg from Control) (Renal Hypertensive Rats; 2 Hr post-dose) [mmHg]	HR % Chg (Chg from Control) (Renal Hypertensive Rats; 4 Hr post-dose) [%]	HR b/min. Chg (Chg from Control) (Renal Hypertensive Rats; 4 Hr post-dose) [b/min.]	SBP % Chg (Chg from Control) (Renal Hypertensive Rats; 4 Hr post-dose) [%]	SBP mmHg Chg (Chg from Control) (Renal Hypertensive Rats; 4 Hr post-dose) [mmHg]	HR % Chg (Chg from Control) (Renal Hypertensive Rats; 8 Hr post-dose) [%]	HR b/min. Chg (Chg from Control) (Renal Hypertensive Rats; 8 Hr post-dose) [b/min.]	SBP % Chg (Chg from Control) (Renal Hypertensive Rats; 8 Hr post-dose) [%]	SBP mmHg Chg (Chg from Control) (Renal Hypertensive Rats; 8 Hr post-dose) [mmHg]	clinical sign noted previously in studies in rats (CD rats)
CCOC(=O)[C@H](CCc1ccccc1)N[C@@H](C)C(=O)N1Cc2cc(OC)c(OC)cc2C[C@H]1C(=O)O [2-{2-[(1-ethoxycarbonyl)-3-phenylpropyl]amino}-1-oxopropyl-1,2,3,4-tetrahydro-6,7-dimethoxy-3-isoquinoline carboxylic acid]	29	87	-8	-14	4	11	-7	-13	4	10	3	4	-11	-33	-7	-12	
COC(=O)C1=C(C)NC(C)=C(C(=O)OCCN(C)Cc2ccccc2)C1c1cccc([N+](=O)[O-])c1 (stereo not drawn) [nicardipine, 2,6-dimethyl-4-(3ʹ-nitrophenyl)-1,4-dihydropyridine-3,5-dicarboxylic acid-3-methyl ester-5-β-(N-benzyl-N-methylamino)-ethyl ester]	22	65	-3	-5	10	30	-4	-7	9	25	-6	-10	-2	-4	-20	-35	pink skin (peripheral vasodilation)
